For series [1] the following is noted: 298.15 K; 101.33 kPa; Liquid; Vibrating tube method.
Series [2] is described as follows: refractive index (Na D-line) (dimensionless). As to conditions: 298.15 K; 101.33 kPa; Liquid; Standard Abbe refractometry.

SMILES strings stand for the structures. Numbers after ± are expanded uncertainties.

By mass density is commonly meant mass per unit of volume. As for `CCCC[n+]1ccc(C)cc1.N#CC(=C=[N-])C#N` [1-butyl-4-methylpyridinium tricyanomethanide], in series [1], the mass density is reported as 1036.68 ± 1.3 kg/m3.

For orientation: refractive index means the speed of light in vacuum divided by its phase velocity in the sample. For `CC(C)=O` [acetone], the mass density in series [1] worked out at 785.23 ± 1 kg/m3. Also, the refractive index in series [2] was found to be 1.356 ± 0.0007.

Take `CCCCCCC` [heptane]: the mass density in series [1] worked out at 679.48 ± 1 kg/m3. In addition, the refractive index in series [2] was determined as 1.38519 ± 0.00073.

Turning to `CCCO` [propan-1-ol], the mass density in series [1] came out at 799.52 ± 1 kg/m3. Besides, in series [2], the refractive index is reported as 1.38375 ± 0.00072.

`c1ccncc1` [pyridine]: the mass density in series [1] is given as 982.85 ± 1 kg/m3. In series [2], the refractive index turned out to be 1.5094 ± 0.00072.

Source of the values: the NIST ThermoML archive (doi:10.1016/j.fluid.2015.03.027).
